Experimental data reported in patent US6355633B1, “Aryl sulfonic acids and derivatives as FSH antagonists” (American Home Products Corporation, priority 1999, dated 2002).
pIC50: −log10 of the molar value.

Target: T1, FSH receptor (Homo sapiens, UniProt P23945)
T1 sequence (P23945 18-695): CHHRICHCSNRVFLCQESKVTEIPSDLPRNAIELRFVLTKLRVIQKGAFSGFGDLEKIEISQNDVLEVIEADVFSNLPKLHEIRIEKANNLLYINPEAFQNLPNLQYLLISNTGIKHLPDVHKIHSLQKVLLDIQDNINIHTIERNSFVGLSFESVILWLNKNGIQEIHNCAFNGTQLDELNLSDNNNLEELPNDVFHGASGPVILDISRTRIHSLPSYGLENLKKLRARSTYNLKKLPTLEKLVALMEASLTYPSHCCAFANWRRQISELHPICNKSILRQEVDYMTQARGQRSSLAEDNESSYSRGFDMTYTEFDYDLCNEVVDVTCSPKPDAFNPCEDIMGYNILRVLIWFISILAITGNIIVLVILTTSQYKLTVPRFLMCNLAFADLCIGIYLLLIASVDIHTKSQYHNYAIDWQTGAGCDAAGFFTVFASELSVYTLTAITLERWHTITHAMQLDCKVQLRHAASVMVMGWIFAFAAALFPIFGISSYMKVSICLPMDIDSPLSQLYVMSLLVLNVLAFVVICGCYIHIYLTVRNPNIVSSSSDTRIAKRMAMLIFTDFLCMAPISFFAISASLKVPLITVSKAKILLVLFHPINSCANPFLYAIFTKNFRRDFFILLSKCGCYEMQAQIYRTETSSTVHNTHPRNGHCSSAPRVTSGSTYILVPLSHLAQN
Assay: FSH Receptor Radioligand Membrane Binding Standard Pharmacological Test Procedure
Parameters: expressed in transfected cells
Conditions: [125I]FSH binding to membranes of CHO cells stably transfected with the human FSH receptor
Experimental: FSH Receptor Radioligand Membrane Binding Standard Pharmacological Test Procedure
Membrane Source: Chinese hamster ovarian cells stably transfected with the human FSH receptor were cultured (Ultra CHO medium containing 1% fetal bovine serum and 200 μg/mL G418) in and harvested. Cells were collected by centrifugation and resulting cell pellets were frozen and stored at −70° C.
Membrane Receptor Preparation: Frozen cell pellets were weighed and resuspended in binding buffer to a final concentration of 30 mg wet weight/mL. Cell suspension for each pellet was homogenized using a Tempest homogenizer (setting=1; 5 strokes; VirTis, Gardiner, N.Y.). Cell homogenates were pooled and 35 mL aliquots were transferred to 50-mL polypropylene copolymer centrifuge tubes (Nalgene cat. #3110-0500). Tubes were spun at 12,000 rpm (SS34 rotor) for 12 min at 4° C. Resulting supernatant fractions were discarded and pellets were stored at −70° C. until use. On the day of the procedure, 35 mL binding buffer was added to each tube (35 mL membrane suspension was sufficient for three 96-well plates). The membrane pellet was dispersed by trituration using a pipet. The resulting suspension wass homogenized using a Tempest homogenizer (3 strokes at setting=1).
Receptor Binding Test procedure: Membrane homogenate (100 μl) was added to each well of a 96-well microtiter plate (Falcon # 3077). All reactions were tested in triplicate. Test compound solutions (50 μl) were added to the designated wells. Total bound counts were determined by adding 50 μl binding buffer containing 4% DMSO to the designated wells. […] Plates were pre-incubated for 15 min at room temperature on shaking platform (setting=3). After preincubation [^125I]FSH (50 μl) was added to each well and plates were incubated for 2 h at room temperature on shaking platform (setting=3). The reaction was terminated by transfer of the membrane preparation to glass fiber filters (Blue Mat #11740; 102×256 mm; Skatron Instruments, Sterling, Va.) that had been pretreated with 1% BSA in wash buffer for at least 30 min, but not longer than 1 h using a 96-well microtiter vacuum harvester (Skatron Instruments). The membrane preparation was washed with 5 cycles of ice-cold wash buffer (200 μl/well/cycle) followed by a pulse wash of 3 cycles (100 μl/well/cycle). The total wash volume per well was 1.3 mL. The filters were dried by a 10 sec aspiration. Disks corresponding to each well of the microtiter plate were punched out of the filter mat into 12×75 mm polypropylene tubes. The radioactivity present on each of the disks was measured using a gamma counter.
An FSH dose response curve (0.001, 0.01, 0.1, 1, 10, and 100 nM) was generated for each binding procedure to monitor procedure to procedrue variability.
FSH Receptor Radioligand Membrane Binding Procedure Buffers and Reagents
Binding buffer is prepared in 11 volumes containing Trizma-HCl, MgCl2, CaCl2 and sodium azide, the pH was adjusted to 7.2 with NaOH, and stored at 4° C. until use. BSA was weighed out on the day of the procedure and added to the amount of buffer required for the procedure (usually 150 mL). The protease inhibitors were prepared as 1 mg/mL stocks (aprotinin, leupeptin, and phosphoramidon were prepared in binding buffer without BSA and protease inhibitors; pepstatin and PMSF were prepared in methanol), stored in 1 mL aliquots at −70° C., and added to the binding buffer on the day of the procedure.
Wash buffer was prepared containing Trizma-HCl, MgCl2 and EDTA, the pH was adjusted to 7.2 with NaOH, and stored at 4° C.
Filter Soak Buffer (pH 7.2)
BSA was weighed out on the day of the procedure and added to 300 mL of wash buffer. The filter soak buffer was used for two procedures before being discarded.
A portion of the stock solution was diluted in binding buffer to a concentration of 200 pM.
FSH Solution for Determining Non-specific Binding: Purified human FSH was prepared as a 100 μM solution in binding buffer without protease inhibitors. […]

`COc1ccc(C(=O)Nc2ccc(CSCc3ccc(NC(=O)c4ccc(OC)c(S(=O)(=O)N5CCOCC5)c4)cc3S(=O)(=O)O)c(S(=O)(=O)O)c2)cc1S(=O)(=O)N1CCOCC1` [Example 50a, 2,2′-[Thiobis(methylene)]bis[5-[[4-methoxy-3-(4-morpholinylsulfonyl)benzoyl]amino]benzenesulfonic Acid]] and `COc1ccc(C(=O)Nc2ccc(CS(=O)(=O)Cc3ccc(NC(=O)c4ccc(OC)c(S(=O)(=O)N5CCOCC5)c4)cc3S(=O)(=O)O)c(S(=O)(=O)O)c2)cc1S(=O)(=O)N1CCOCC1` [Example 50b, 2,2′-[Sulfonylbis(methylene)]bis[5-[[4-methoxy-3-(4-morpholinylsulfonyl)benzoyl]amino]benzenesulfonic acid]] are within 0.2 log units of each other in pIC50: 4.47 for the first, 4.39 for the second.

`CS(=O)(=O)Cc1ccc(C(=O)Nc2ccc(/C=C/c3ccc(NC(=O)c4ccc(S(C)(=O)=O)cc4)cc3S(=O)(=O)O)c(S(=O)(=O)O)c2)cc1` [Example 40b, 5-[[4-(Methylsulfonyl)benzoyl]amino]-2-[(E)-2-[4-[[4-[(methylsulfonyl)methyl]benzoyl]amino]-2-sulfophenyl]ethenyl]benzenesulfonic Acid] and `CS(=O)(=O)Cc1ccc(C(=O)Nc2ccc(/C=C/c3ccc(NC(=O)c4ccc(CS(C)(=O)=O)cc4)cc3S(=O)(=O)O)c(S(=O)(=O)O)c2)cc1` [Example 32g, 2,2′-[(E)-1,2-Ethenediyl]bis[5-[[4-[(methylsulfonyl)methyl]benzoyl]amino]benzenesulfonic Acid]] are the same in pIC50: 5.28 for the first, 5.28 for the second.

Going from `COCCOc1ccc(C(=O)Nc2ccc(/C=C/c3ccc(NC(=O)c4ccc(S(C)(=O)=O)cc4)cc3S(=O)(=O)O)c(S(=O)(=O)O)c2)cc1` [Example 40a, 5-[[4-(2-Methoxyethoxy)benzoyl]amino]-2-[(E)-2-[4-[[4-(methanesulfonyl)benzoyl]amino]-2-sulfophenyl]ethenyl]benzenesulfonic Acid] to `O=C(O)CS(=O)(=O)c1ccc(C(=O)Nc2ccc(C=Cc3ccc(NC(=O)c4ccc(S(=O)(=O)CC(=O)O)cc4)cc3S(=O)(=O)O)c(S(=O)(=O)O)c2)cc1` [Example 36a, [4-(4-{2-[4-(4-Carboxymethanesulfonyl-benzoylamino)-2-sulfo-phenyl]-vinyl}-3-sulfo-phenylcarbamoyl)-benzenesulfonyl]-acetic Acid], the pIC50 falls from 5.21 to 4.80 (0.41 log units). The first is the more potent here.

First: COc1ccc(C(=O)Nc2ccc(-c3ccc(NC(=O)c4ccc(OC)c(S(=O)(=O)N5CCOCC5)c4)cc3S(=O)(=O)O)c(S(=O)(=O)O)c2)cc1S(=O)(=O)N1CCOCC1 [Example 33g, 4,4′-Bis[4-methoxy-3-(morpholine-4-sulfonyl)benzoylamino]biphenyl-2,2′-(bis)sulfonic Acid]
Second: COCCSc1ccc(C(=O)Nc2ccc(/C=C/c3ccc(NC(=O)c4ccc(SCCOC)c(S(=O)(=O)N5CCOCC5)c4)cc3S(=O)(=O)O)c(S(=O)(=O)O)c2)cc1S(=O)(=O)N1CCOCC1 [Example 32l]
The pIC50 of the first is 0.69 log units lower: 4.70 for the first, 5.39 for the second. The second is the more potent here.

First: COc1ccc(C(=O)Nc2ccc(CCc3ccc(NC(=O)c4ccc(OC)c(S(=O)(=O)N5CCS(=O)(=O)CC5)c4)cc3S(=O)(=O)O)c(S(=O)(=O)O)c2)cc1S(=O)(=O)N1CCS(=O)(=O)CC1 [Example 43c, 2,2′-(1,2-Ethanediyl)bis[5-[[3-[(1,1-dioxido-4-thiomorpholinyl)sulfonyl]-4-methoxybenzoyl]amino]benzenesulfonic Acid]]
Second: COC(=O)CSc1ccc(C(=O)Nc2ccc(/C=C/c3ccc(NC(=O)c4ccc(SCC(=O)OC)c(S(=O)(=O)N5CCOCC5)c4)cc3S(=O)(=O)O)c(S(=O)(=O)O)c2)cc1S(=O)(=O)N1CCOCC1 [Example 32p, [4-[4-(2-{4-[4-Methoxycarbonylmethanesulfanyl-3-(morpholine-4-sulfonyl)-benzoylamino]-2-sulfo-phenyl}-(E)-vinyl)-3-sulfo-phenylcarbamoyl]-2-(morpholine-4-sulfonyl)-phenylsulfanyl]-acetic Acid, Methyl Ester]
The pIC50 of the first is 0.53 log units higher: 5.35 for the first, 4.82 for the second.

`O=C(Nc1ccc(/C=C/c2ccc(NC(=O)c3ccc(N4CCOCC4)c(S(=O)(=O)N4CCOCC4)c3)cc2S(=O)(=O)O)c(S(=O)(=O)O)c1)c1ccc(N2CCOCC2)c(S(=O)(=O)N2CCOCC2)c1` [Example 32k, 2,2′-[(E)-1,2-Ethenediyl]bis[5-[[4-(4-morpholinyl)-3-(4-morholinylsulfonyl)benzoyl]amino]benzenesulfonic Acid]] and `COCCN(CCOC)c1ccc(C(=O)Nc2ccc(/C=C/c3ccc(NC(=O)c4ccc(N(CCOC)CCOC)c(S(=O)(=O)N5CCOCC5)c4)cc3S(=O)(=O)O)c(S(=O)(=O)O)c2)cc1S(=O)(=O)N1CCOCC1` [Example 32m, 2,2′-[(E)-1,2-Ethenediyl]bis[5-[[4-[bis(2-methoxyethyl)amino]-3-(4-morpholinylsulfonyl)benzoyl]amino]benzenesulfonic Acid]] are within 0.2 log units of each other in pIC50: 5.15 for the first, 5.31 for the second.

First: COC(=O)CS(=O)(=O)c1cccc(C(=O)Nc2ccc(C=Cc3ccc(NC(=O)c4cccc(S(=O)(=O)CC(=O)OC)c4)cc3S(=O)(=O)O)c(S(=O)(=O)O)c2)c1 [Example 32d, [3-(4-{2-[4-(3-Methoxycarbonylmethanesulfonyl-benzoylamino)-2-sulfo-phenyl]-vinyl}-3-sulfo-phenylcarbomoyl)-benzenesulfonyl]-acetic Acid, Methyl Ester]
Second: O=C(O)CS(=O)(=O)c1cccc(C(=O)Nc2ccc(C=Cc3ccc(NC(=O)c4cccc(S(=O)(=O)CC(=O)O)c4)cc3S(=O)(=O)O)c(S(=O)(=O)O)c2)c1 [Example 36b, [3-(4-{2-[4-(3-Carboxymethanesulfonyl-benzoylamino)-2-sulfo-phenyl]-vinyl}-3-sulfo-phenylcarbamoyl)-benzenesulfonyl]-acetic Acid]
The pIC50 of the first is 0.22 log units higher: 4.90 for the first, 4.68 for the second. The first is the more potent here.

Compared with `O=C(Nc1ccc(/C=C/c2ccc(NC(=O)c3cccc(CN4CCOCC4)c3)cc2S(=O)(=O)O)c(S(=O)(=O)O)c1)c1cccc(CN2CCOCC2)c1` [Example 33b, 2,2′-[(E)-1,2-Ethenediyl]bis[5-[[3-(4-morpholinylmethyl)benzoyl]amino]benzenesulfonic Acid]], `CSc1ccc(C(=O)Nc2ccc(C=Cc3ccc(NC(=O)c4ccc(SC)c(S(=O)(=O)N5CCOCC5)c4)cc3S(=O)(=O)O)cc2)cc1S(=O)(=O)N1CCOCC1` [Example 59, 5-[4-Methylsulfanyl-3-(morpholine-4-sulfonyl)-benzoylamino]-2-(2-{[4-methylsulfanyl-3-(morpholine-4-sulfonyl)-benzoylamino]-phenyl}-vinyl)-benzenesulfonic Acid] is 0.55 log units lower in pIC50: 5.35 for the first, 4.80 for the second. The first is the more potent here.

With `CS(=O)(=O)c1ccc(C(=O)Nc2ccc(CCc3ccc(NC(=O)c4ccc(S(C)(=O)=O)cc4)cc3S(=O)(=O)O)c(S(=O)(=O)O)c2)cc1` [Example 43e] the pIC50 was 5.37.
